{"source": "patent US20230027192A1", "about": "“METHODS OF USING SOLUBLE SOLID DISPERSIONS OF RIFAXIMIN” (United States Government as Represented by the Department …, priority 2019, published 2023)", "origin": "cited, not measured here", "key": {"[1]": {"test_system": "secondary/primary bile acid ratio", "settings": "patients with compensated cirrhosis"}, "[2]": {"test_system": "hepatic encephalopathy (HE)", "settings": "in cirrhosis"}}}
{"smiles": "CO[C@H]1/C=C/O[C@@]2(C)Oc3c(C)c(O)c4c(O)c(c5c(nc6cc(C)ccn65)c4c3C2=O)NC(=O)/C(C)=C\\C=C\\[C@H](C)[C@H](O)[C@@H](C)[C@@H](O)[C@@H](C)[C@H](OC(C)=O)[C@@H]1C", "note": "[rifaximin]", "values": [{"measurement": "secondary/primary bile acid ratio", "setting": "[1]", "result": "reduction"}, {"measurement": "risk of HE recurrence and HE-related hospitalizations", "setting": "[2]", "result": "reduces the risk"}]}
